The values below are quoted from earlier work in PMC12737022, “Evaluations of Sex Differences in Dosimetry in Rats Following Perfluorohexanesulfonamide (PFHxSA) Oral Exposure” (Toxics, 2025).

On the set-up of the data set: method as in PMID 31078680. The conditions noted are these: across both sexes; cited from earlier work.

With `O=S(=O)(O)C(F)(F)C(F)(F)C(F)(F)C(F)(F)C(F)(F)C(F)(F)F` [PFHxS, perfluorohexane sulfonic acid], the “Liver partitioning summary values” is given as 0.16–0.44.
